Experiments:
male C57BL/6 mice on HFD = experiment: Oral PKD inhibitor in mice with pre-established obesity (rescue, treatment after 7 weeks of HFD); assay type: in vivo, mouse
Protocol: Mice body weight development was closely monitored and reported here on a weekly basis when mice were on a specified diet. All experiments were performed in male mice. […] A glucose tolerance test (GTT) was performed after overnight fasting. Mice blood glucose was assessed before and 15, 30, 60, 90, and 120 minutes after intraperitoneal injection of glucose (2 g/kg). For the Insulin tolerance test (ITT), the same measurements were performed after 4 hours of fasting and intraperitoneal injection of 0.5 U/kg of recombinant insulin. For glucose measurements, one blood drop was drawn from the tail tip into a test strip and measured with a glucometer (Accu-Chek® Roche).

LDLR-/- mice = experiment: Atheroma formation in high cholesterol diet-fed LDLR-/- mice; assay type: in vivo, mouse; conditions: oral 10 mg/kg a day, 7th to 17th week of high cholesterol diet, vs solvent
From the text: To assess the impact of PKD2 on cholesterol levels as well as on atheroma formation, we utilized a mouse genetic model of atheroma formation and mice carrying inactivatory mutation in the sequence encoding PKD2 (Matthews et al, 2010). Mice deficient for Low-density lipoprotein receptor (LDLR), develop hyperlipidemia (elevated levels of cholesterol) and deposit a significant amount of atherosclerotic plaques in the vessels especially when fed with a high cholesterol diet (containing 1.25% of the cholesterol in the food) (Ishibashi et al, 1993). We crossed mice deficient for LDLR (LDLR−/−) and mice carrying inactivatory mutation of PKD2 (PKD^ki/ki) to generate double mutant mice (LDLR−/− PKD^ki/ki) and corresponding control animals, LDLR−/−. These animals were fed for 18 weeks with high cholesterol diet. […] The relative plaque area was also quantified.
To test if inhibition of PKD by CRT0066101 compound is also sufficient to reduce atherosclerotic plaque formation, we also utilized high cholesterol diet-fed LDLR−/− mice as a model. […] After the 17th week of the experiment, mice were sacrificed and lipid levels in the blood, as well as the amount of atherosclerotic plaques, were assessed as described for the genetic model above.

[1] = test system: Caco2 cells deficient in PKD2; experiment: 14C-fatty acid basolateral release in Caco2 cells expressing shPkd2 in transwell system; assay type: cell-based, human; conditions: 24 h, FIG. 6B
Protocol: Caco2 cells were cultured in Dulbecco's modified eagle's medium 4.5 g/L glucose (DMEM), 10% fetal bovine serum (FBS), non-essential amino acids (NEAA), 1 mM sodium pyruvate, and 40 μg/mL gentamycin. For the generation of shRNA cell lines, Pkd2 shRNA lentiviral sequences or scramble (non-targeting) were first cloned into the pLKO.1-puro vector then packed into viral particles in packaging cells (HEK293T) using 3rd generation packaging vectors. Caco2 cells were spinfected with viral supernatant then selected with puromycin and the deletion efficiency was further assessed by western blot.
Lipid transport studies were assessed in Caco2 cells seeded in trans-wells. 1.5×10^5 cells were seeded into a 12-well cell culture insert of 1 μm pore size Trans-well and maintained in for 14 consecutive days with media change every two days. For the lipids uptake and release, the apical side of the membrane was loaded with radioactive ^14C-palmitic acid (0.2 μCi), oleic acid (1 mM), and taurocholic acid (2 mM) in DMEM high glucose 10% FBS. The basal medium contained DMEM high glucose 0.1% FBS. After 24 hours of incubation, cell lysates and the apical and basolateral medium was collected and the ^14C-palmitic acid was measured in a scintillation counter for aliquots of apical and basal medium and for cell lysate. […]

For `CC[C@@H](N)CNc1ccnc(-c2cc(-c3cnn(C)c3)ccc2O)n1` [CRT0066101], the glucose tolerance (male C57BL/6 mice on HFD; 8 weeks after starting treatment, FIG. 7D) was “improved glucose tolerance”, the insulin sensitivity (male C57BL/6 mice on HFD; 10 weeks after starting treatment, FIG. 7E) was “improved” and the weight gain (male C57BL/6 mice on HFD; treatment started after 7 weeks HFD, HFD continued, vs water, FIG. 7A) was “significantly decreased weight gain”. The “obesity (fat depots, fat mass by NMR)” value (male C57BL/6 mice on HFD; treatment started after 7 weeks HFD, FIG. 7B-C) was “less obesity”, the blood cholesterol levels (LDLR-/- mice; FIG. 10A) was “reduction in cholesterol levels” and the “size of atherosclerotic plaques (relative area in aorta, OilRedO)” value (LDLR-/- mice; FIG. 10B-C) was “smaller size of atherosclerotic plaques”. For the same compound, the “TG secretion (basolateral release of 14C-labeled fatty acids)” value [1] was “did not reduce TG secretion”.

Reference: patent US20240082260A1, “INHIBITOR OF PROTEIN KINASE D FOR USE IN PREVENTION OR TREATMENT OF HYPERLIPIDEMIA” (priority 2021, published 2024)
